Assays:
Type in all cases: cell-based
[1] = system: HeLa cells (human cervical adenocarcinoma cells); assay: Proliferation assay (alamarBlue) with HeLa cells
Description: (§1) The antiproliferative activities of compounds falling under formula (Ia), (Ib) and (Ic), respectively, were investigated on cells or cell lines originating from a disorder of the haematopoietic system, including the myeloid cell compartment and the lymphoid cell compartment (T-cells and B-cells), the neuroendocrine system, the cervix, the breast, the ovaries, the lung, the gastrointestinal tract, and the mucosal epithelium, as well as from the skin epithelium and from the muscle. To this end, HL-60 cells, NB-4 cells, HH cells, RPMI-8402 cells, TANOUE cells, TT cells, HeLa cells, MDA-MB-231 cells, FU-OV-1 cells, LOU-NH91 cells, 23132/87 cells, CAL-27 cells, BHY cells, SCC-25 cells, A-431 cells, human primary epidermal keratinocytes (HPEK), and C2C12 cells were seeded into 96-well plates suitable for fluorescence assays (CORNING #3598) at following initial cell numbers: 1000 cells per well for HL-60; 1000 cells per well for NB-4; 5000 cells per well for HH; 5000 cells per well for RPMI-8402; 1500 cells per well for TANOUE; 9000 cells per well for TT; 2000 cells per well for HeLa; 3000 cells per well for MDA-MB-231; 3000 cells per well for FU-OV-1; 4000 cells per well for LOU-NH91; 2000 cells per well for 23132/87; 2000 cells per well for CAL-27; 1500 cells per well for BHY; 1500 cells per well for SCC-25; 700 cells per well for A-431; 1000 cells per well for HPEK; 500 cells per well for C2C12. The cells were treated with compounds at indicated final concentrations (diluted from the 1000× stock-solutions in DMSO to a final DMSO concentration of 0.1% v/v in H2O (Water For Injection, WFI, Fisherscientific #10378939)) or with the empty carrier DMSO at 0.1% v/v as control for 5 days. At day 5 after starting the treatments the cells were subjected to the alamarBlue® Proliferation Assay (Bio-Rad Serotec GmbH, BUF012B) according to the protocol of the manufacturer. The readout was taken with a multi-well plate-reader in the fluorescence mode with applying a filter for excitation at 560 nm (band width 10 nm) and for emission at 590 nm (band width 10 nm). Control treatments for growth inhibition with commercial compounds such as Methotrexate (MTREX) and Resveratrol (RES) were included on every plate. Some of the test compounds of the present invention were obtained and applied as their salts. According cases are indicated in the column “Specification” in Table 55 to Table 92 and by their sum formula in Table 93.
(§2) The assays were performed in duplicate or more replicates of independent single experiments each containing a six-fold replicate for every condition. For every individual plate, the measured fluorescence intensity values of the conditions with compound treatment were normalized against the corresponding equally weighted arithmetic mean of the fluorescence intensity values of the six DMSO treated control wells in order to obtain the relative values to a baseline level of 1.0.
(§3) Two independent outlier analyses were performed according to the methods by Peirce and Chauvenet (Ross, Journal of Engineering Technology 2003, 1-12). Outliers confirmed by at least one of the methods were excluded from the calculations but not more than one value out of six per compound within a single experiment. The weighted arithmetic mean (here abbreviated as AVEw) for each compound was calculated from the normalized values over all independent replicates of the single experiments comprising the six replicates each. The corresponding standard deviation for the weighted arithmetic mean was calculated according to the method described by Bronstein et al. (Bronstein, Semendjajew, Musiol, Müihlig, Taschenbuch der Mathematik, 5th edition 2001 (German), publisher: Verlag Harri Deutsch, Frankfurt am Main and Thun) and was combined with the Gauß' error propagation associated with the performed calculation for the normalization. The resulting standard deviation is herein referred to as “combined standard deviation”. […]

[2] = system: SCC-25 cells (human tongue squamous cell carcinoma cells); assay: Proliferation assay (alamarBlue) with SCC-25 cells; settings: for Activity Range (weighted arithmetic mean AVEw of normalized fluorescence intensity, relative to DMSO basis level 1.0): 20 μM; for Activity Range (weighted arithmetic mean of normalized fluorescence intensity, relative to DMSO basis level 1.0): control at 40 μM
Description: as §1, §2, §3

[3] = system: NB-4 cells (human acute promyelocytic leukemia cells); assay: Proliferation assay (alamarBlue) with NB-4 cells
Description: as §1, §2, §3

[4] = system: BHY cells (human oral squamous cell carcinoma cells); assay: Proliferation assay (alamarBlue) with BHY cells; set-up: key: fluorescence relative to mean of DMSO control wells = 1.0; settings: for Activity Range (weighted arithmetic mean AVEw of normalized fluorescence intensity, relative to DMSO basis level 1.0): 20 μM; for Activity Range (weighted arithmetic mean of normalized fluorescence intensity, relative to DMSO basis level 1.0): control at 40 μM
Description: as §1, §2, §3

[5] = system: HL-60 cells (human acute myeloid leukemia cells); assay: Proliferation assay (alamarBlue) with HL-60 cells
Description: as §1, §2, §3

[6] = compound at 20 μM, Table 67 (novel compounds)
[7] = compound at 20 μM, Table 68 (compounds of PCT/EP2018/054686)
[8] = Table 83 (compounds disclosed in PCT/EP2018/054686)
[9] = 20 μM, relative to DMSO basis level 1.0, Table 57 (novel compounds)
[10] = 20 μM, relative to DMSO basis level 1.0, Table 58 (compounds disclosed in PCT/EP2018/054686)
[11] = Table 80 (compounds disclosed in PCT/EP2018/054686)
[12] = Table 81 (compounds disclosed in PCT/EP2018/054686)
[13] = 20 μM, relative to DMSO basis level 1.0, Table 55 (novel compounds)
[14] = 20 μM, relative to DMSO basis level 1.0, Table 56 (compounds disclosed in PCT/EP2018/054686)

SMILES: CN(Cc1cnc2nc(N)nc(N)c2n1)c1ccc(C(=O)N[C@@H](CCC(=O)O)C(=O)O)cc1 [MTREX, Methotrexate]
- Activity Range: weighted arithmetic mean (AVEw) of normalized fluorescence intensity relative to DMSO basis level 1.0 [1, 6]: 0.4 ± 0.0
- Activity Range: weighted arithmetic mean (AVEw) of normalized fluorescence intensity relative to DMSO basis level 1.0 [1, 7]: 0.4 ± 0.0
- Activity Range (weighted arithmetic mean AVEw of normalized fluorescence intensity, relative to DMSO basis level 1.0) ([2]; Table 82 (novel compounds)): 0.5 ± 0.1
- Activity Range (weighted arithmetic mean AVEw of normalized fluorescence intensity, relative to DMSO basis level 1.0) [2, 8]: 0.5 ± 0.1
- Activity Range: weighted arithmetic mean (AVEw) of normalized fluorescence intensity, proliferation assay with NB-4 cells [3, 9]: 0.1 ± 0.0
- Activity Range: weighted arithmetic mean (AVEw) of normalized fluorescence intensity, proliferation assay with NB-4 cells [3, 10]: 0.1 ± 0.0
- Activity Range (weighted arithmetic mean AVEw of normalized fluorescence intensity, relative to DMSO basis level 1.0) ([4]; Table 79 (novel compounds)): 0.3 ± 0.0
- Activity Range (weighted arithmetic mean AVEw of normalized fluorescence intensity, relative to DMSO basis level 1.0) [4, 11]: 0.3 ± 0.0
- Activity Range (weighted arithmetic mean AVEw of normalized fluorescence intensity, relative to DMSO basis level 1.0) [4, 12]: 0.3 ± 0.0
- Activity Range: weighted arithmetic mean (AVEw) of normalized fluorescence intensity, proliferation assay with HL-60 cells [5, 13]: 0.1 ± 0.1
- Activity Range: weighted arithmetic mean (AVEw) of normalized fluorescence intensity, proliferation assay with HL-60 cells [5, 14]: 0.1 ± 0.1

SMILES: Oc1ccc(C=Cc2cc(O)cc(O)c2)cc1 [RES, Resveratrol]
- Activity Range: weighted arithmetic mean (AVEw) of normalized fluorescence intensity relative to DMSO basis level 1.0 [1, 6]: 0.9 ± 0.0
- Activity Range: weighted arithmetic mean (AVEw) of normalized fluorescence intensity relative to DMSO basis level 1.0 [1, 7]: 0.9 ± 0.0
- Activity Range: weighted arithmetic mean (AVEw) of normalized fluorescence intensity relative to DMSO basis level 1.0 ([1]; control at 40 μM, Table 67): 0.4 ± 0.1
- Activity Range: weighted arithmetic mean (AVEw) of normalized fluorescence intensity relative to DMSO basis level 1.0 ([1]; control at 40 μM, Table 68): 0.4 ± 0.1
- Activity Range (weighted arithmetic mean AVEw of normalized fluorescence intensity, relative to DMSO basis level 1.0) ([2]; Table 82 (novel compounds)): 0.4 ± 0.1
- Activity Range (weighted arithmetic mean AVEw of normalized fluorescence intensity, relative to DMSO basis level 1.0) [2, 8]: 0.4 ± 0.1
- Activity Range (weighted arithmetic mean of normalized fluorescence intensity, relative to DMSO basis level 1.0) ([2]; Table 82): 0.1 ± 0.0
- Activity Range (weighted arithmetic mean of normalized fluorescence intensity, relative to DMSO basis level 1.0) ([2]; Table 83): 0.1 ± 0.0
- Activity Range: weighted arithmetic mean (AVEw) of normalized fluorescence intensity, proliferation assay with NB-4 cells [3, 9]: 0.1 ± 0.0
- Activity Range: weighted arithmetic mean (AVEw) of normalized fluorescence intensity, proliferation assay with NB-4 cells [3, 10]: 0.1 ± 0.0
- Activity Range: weighted arithmetic mean (AVEw) of normalized fluorescence intensity, proliferation assay with NB-4 cells ([3]; control at 40 μM, relative to DMSO basis level 1.0, Table 57): 0.0 ± 0.0
- Activity Range: weighted arithmetic mean (AVEw) of normalized fluorescence intensity, proliferation assay with NB-4 cells ([3]; control at 40 μM, relative to DMSO basis level 1.0, Table 58): 0.0 ± 0.0
- Activity Range (weighted arithmetic mean AVEw of normalized fluorescence intensity, relative to DMSO basis level 1.0) [4, 11]: 0.5 ± 0.1
- Activity Range (weighted arithmetic mean AVEw of normalized fluorescence intensity, relative to DMSO basis level 1.0) [4, 12]: 0.5 ± 0.1
- Activity Range (weighted arithmetic mean of normalized fluorescence intensity, relative to DMSO basis level 1.0) ([4]; Table 79): 0.3 ± 0.0
- Activity Range (weighted arithmetic mean of normalized fluorescence intensity, relative to DMSO basis level 1.0) ([4]; Table 80): 0.3 ± 0.0
- Activity Range (weighted arithmetic mean of normalized fluorescence intensity, relative to DMSO basis level 1.0) ([4]; Table 81): 0.3 ± 0.0
- Activity Range: weighted arithmetic mean (AVEw) of normalized fluorescence intensity, proliferation assay with HL-60 cells [5, 13]: 0.4 ± 0.1
- Activity Range: weighted arithmetic mean (AVEw) of normalized fluorescence intensity, proliferation assay with HL-60 cells [5, 14]: 0.4 ± 0.1
- Activity Range: weighted arithmetic mean (AVEw) of normalized fluorescence intensity, proliferation assay with HL-60 cells ([5]; control at 40 μM, relative to DMSO basis level 1.0, Table 55): 0.2 ± 0.1
- Activity Range: weighted arithmetic mean (AVEw) of normalized fluorescence intensity, proliferation assay with HL-60 cells ([5]; control at 40 μM, relative to DMSO basis level 1.0, Table 56): 0.2 ± 0.1

Reference: patent US20220354949A1, “NOVEL COMPOUNDS” (XENIOPRO GmbH, priority 2018, published 2022)
